Several values for one entry are separate records, joined by “and”; a condition that tells them apart may be missing. Identical values can stand only once. Entries after “also recorded” stand apart in the source; their conditions may differ. Like-named read-outs stand apart in the source and are kept apart here.
How the values were obtained:
LcA (BoNT/A light chain) [1] = biological target: T1, LcA (BoNT/A light chain) (Clostridium botulinum, UniProt P0DPI0); conditions: cited from earlier work
LcA (BoNT/A light chain) [2] = biological target: T1, LcA (BoNT/A light chain)
LcA (BoNT/A light chain) [3] = biological target: T1, LcA (BoNT/A light chain); remark: listed apart in the source
LcA (BoNT/A light chain) [4] = biological target: T1, LcA (BoNT/A light chain); remark: listed apart in the source
BoNT/A / LcA = conditions: cited from earlier work
LcA (BoNT/A light chain) [5] = biological target: T1, LcA (BoNT/A light chain); format: biochemical
LcA (BoNT/A light chain) [6] = biological target: T1, LcA (BoNT/A light chain); format: biochemical; remark: listed apart in the source
LcA (BoNT/A light chain) [7] = biological target: T1, LcA (BoNT/A light chain); conditions: cited from earlier work; remark: listed apart in the source
LcA (BoNT/A light chain) [8] = biological target: T1, LcA (BoNT/A light chain); format: biochemical; conditions: pH 7.4

T1 sequence (P0DPI0 1-448 limits assumed): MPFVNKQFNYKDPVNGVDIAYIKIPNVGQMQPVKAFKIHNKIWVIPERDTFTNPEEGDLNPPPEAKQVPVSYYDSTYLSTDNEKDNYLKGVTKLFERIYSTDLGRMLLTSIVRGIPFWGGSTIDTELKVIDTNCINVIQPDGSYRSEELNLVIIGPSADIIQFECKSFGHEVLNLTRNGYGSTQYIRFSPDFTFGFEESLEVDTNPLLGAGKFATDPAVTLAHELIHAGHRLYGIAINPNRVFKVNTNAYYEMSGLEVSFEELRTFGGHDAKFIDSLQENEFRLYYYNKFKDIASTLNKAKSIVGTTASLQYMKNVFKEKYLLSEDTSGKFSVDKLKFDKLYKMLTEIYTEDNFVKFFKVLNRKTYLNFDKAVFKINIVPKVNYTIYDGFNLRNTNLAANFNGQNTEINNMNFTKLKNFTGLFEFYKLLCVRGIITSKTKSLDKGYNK

For SNKTRIDEANQ-RATKML [17-mer], the Km (LcA (BoNT/A light chain) [1]) is listed as 1000 µM, the substrate conversion (LcA (BoNT/A light chain) [2]) is listed as 60–65% and the “substrate converted into products” value (LcA (BoNT/A light chain) [2]) is listed as 40%. The Km (LcA (BoNT/A light chain) [3]) was 1500 µM, the Vmax (LcA (BoNT/A light chain) [3]) was 33.6 mM/min/mg and the kcat (LcA (BoNT/A light chain) [3]) was 28 s⁻¹. For the same compound, the Km (LcA (BoNT/A light chain) [3]; pH 7.4) was 1510 µM, the kcat (LcA (BoNT/A light chain) [3]; pH 7.4) was 28 s⁻¹ and 28 ± 3.5 s⁻¹ and the kcat/Km (LcA (BoNT/A light chain) [3]; pH 7.4) was 0.019 µM/s. The “quality as LcA substrate (Km, kcat, kcat/Km)” value (LcA (BoNT/A light chain) [4]) was “poorest of all the three substrates”.

For `O=C(O)CN(CCN(CC(=O)O)CC(=O)O)CC(=O)O` [EDTA, ethylenediaminetetraacetate], the “effect on BoNT / LcA activity” value (BoNT/A / LcA) is given as “inhibitor of LcA activity”, the “effect on BoNT activities” value (BoNT/A / LcA) is given as “inhibits BoNT activities” and the “effect on BoNT/A activity” value (BoNT/A / LcA) is given as “inhibitory”.

In the case of `[Zn]` [zinc], the “effect on the LcA reaction depending on concentration” value (BoNT/A / LcA) is listed as “both stimulating and inhibitory”.

For `O[C@@H](CS)[C@@H](O)CS` (racemic) [DTT, dithiothreitol], the “effect of DTT on solubilized LcA activity” value (BoNT/A / LcA) is listed as “inhibited”, the “effect on the LcA reaction depending on concentration” value (BoNT/A / LcA) is listed as “both stimulating and inhibitory” and the “concentration for optimal LcA activity” value (LcA (BoNT/A light chain) [5]) is listed as 4 mM. For the same compound, the “effect of DTT on LcA activity, SNAP25 substrate” value (LcA (BoNT/A light chain) [5]; pH 7.4) was “slight stimulation of LcA activity”, the “behavior of the new LcA preparation on adding BSA, ZnCl2 and DTT” value (LcA (BoNT/A light chain) [6]) was “essentially same behavior” and the “effect of adding DTT and ZnCl2 to the 17-mer substrate reactions” value (LcA (BoNT/A light chain) [6]) was “results identical to those without them”. For the same compound, the “effect on kinetic constants or specific activity of LcA with the 17-mer substrate” value (LcA (BoNT/A light chain) [7]) was “no effect”.

In the case of (FITC)-ATDRIDQANQRATK(DABCYL)nL-amide, the Km (LcA (BoNT/A light chain) [1]) is given as 19 µM.

For `Cl.NC(CO)(CO)CO` [tris.HCl], the “effect on BoNT / LcA activity” value (BoNT/A / LcA) is given as “inhibitory” and the “effect on BoNT/A activity” value (BoNT/A / LcA) is given as “inhibitory”.

With zinc chloride [ZnCl2] the “concentration for optimal LcA activity” value (LcA (BoNT/A light chain) [5]) was 0.1 mM, the “effect of ZnCl2 on LcA activity, SNAP25 substrate” value (LcA (BoNT/A light chain) [5]; pH 7.4) was “slight stimulation of the activity; also recorded: activity remained above the control 100%” and the “behavior of the new LcA preparation on adding BSA, ZnCl2 and DTT” value (LcA (BoNT/A light chain) [6]) was “essentially same behavior”. The “effect of adding DTT and ZnCl2 to the 17-mer substrate reactions” value (LcA (BoNT/A light chain) [6]) was “results identical to those without them” and the “effect on kinetic constants or specific activity of LcA with the 17-mer substrate” value (LcA (BoNT/A light chain) [7]) was “no effect”.

In the case of `[Cl-].[Na+]` [NaCl, Sodium chloride], the “effect on BoNT activities” value (BoNT/A / LcA) is listed as “inhibits BoNT activities”, the “effect on BoNT/A activity” value (BoNT/A / LcA) is listed as “inhibitory” and the “effect of higher NaCl concentrations on LcA activity, full length SNAP25 substrate” value (LcA (BoNT/A light chain) [5]) is listed as “decrease in LcA activity”. The “effect of NaCl on LcA activity, full length SNAP25 substrate” value (LcA (BoNT/A light chain) [5]; pH 7.4) was “stimulating effect; also recorded: more than sevenfold”, the “effect of NaCl on LcA activity, 17-mer substrate” value (LcA (BoNT/A light chain) [6]; pH 7.4) was “inhibitory effect” and the “effect of NaCl on LcA activity, 66-mer substrate” value (LcA (BoNT/A light chain) [8]) was “stimulating effect; also recorded: The same was also observed when the 66-mer peptide was used as a substrate”.

In the case of SNRTRIDEAN[dnpK]RA[daciaC]RML, the Km (LcA (BoNT/A light chain) [1]) is given as 10 µM and the kcat (LcA (BoNT/A light chain) [1]) is given as 7 s⁻¹.

— PMC4000213 (PLoS ONE, 2014)
